Literature values in patent publication US20080139510A1, “Treatment of migraine headaches with sublingual amino acids” (priority 2006, published 2008).

Tested on: migraine attack
Conditions: oral administration, tablet or capsule

N[C@@H](Cc1c[nH]c2ccc(O)cc12)C(=O)O [5-HTP, 5-hydroxytryptophan]
aborting or significantly mitigating pain after onset of migraine attack: ineffective
